Read-outs that look alike come from different tables or passages of the source.
Tests used:
[1] = cited from earlier work
[2] = Tolerability of intranasal betahistine in beagle dogs, Example 5; assay type: in vivo; details: dog
Description: In this study, the pharmacokinetic profile of betahistine was evaluated after a single dose administration of betahistine in male and female beagle dogs (age 5-7 months; weight of 5-11 kg, within a range of 3 kg for each sex) for three routes of administration: oral, intranasal, and intravenous.
On Day 8 of the study, the animals that received oral BH at a dose of 12 mg/kg were administered the test betahistine composition intranasally at a dose of 40 mg betahistine dihydrochloride; the animals that received oral BH at a dose of 24 mg/kg were administered the test betahistine composition intranasally at a dose of 80 mg betahistine dihydrochloride; and the animals that received oral BH at a dose of 48 mg/kg were administered the test betahistine composition intranasally at a dose of 120 mg betahistine dihydrochloride. The test betahistine composition was delivered intranasally in a single dose via an Aptar nasal spray pump device at a total dose level of 40, 80 and 120 mg of betahistine dihydrochloride. Plasma samples were collected prior to dosing, and then at 5, 10, 20 and 30 min, 1, 2, 3, 6, 24 hours after dosing.

[3] = both, beagle, dog, in vivo, 1 h
Description: The safety and pharmacokinetic profile of intranasal betahistine was first evaluated in a single dose toxicology study in male and female beagle dogs (14-21 months of age, weight 8.2-11.8 kg). Both the vehicle and test article were delivered in a single dose via a nasal spray pump (Aptar Classic Line) with a delivery volume of 100 μL into both nostrils at total dose levels of 0 (vehicle), 4, 20 or 80 mg of betahistine dihydrochloride. Each treatment group was made up of 1 dog/sex.
Plasma concentrations were measured with liquid chromatographic tandem mass spectrometry (LC-MS/MS; SCIEX API 5000 for betahistine and SCIEX API 4000 for 2-pyridylacetic acid (2-PAA)) with a validated method. Betahistine-^13CD3 dihydrochloride and 2-PAA-D4 hydrochloride served as internal standards. The standard calibration range—using a plasma sample volume of 0.05 mL—for betahistine was 0.05 to 50 ng/mL and for 2-PAA it was 1 to 1000 ng/mL. The limit of quantitation was 0.05 ng/mL for betahistine and 1.0 ng/mL for 2-PAA.
In case of betahistine, the method involved a liquid-liquid extraction; in case of 2-PAA it involved protein precipitation. For betahistine, plasma samples were extracted under basic conditions with an organic solvent; the organic phase was dried and reconstituted in reconstitution solvent. Approximately 0.1 mL of the aqueous layer was transferred into polypropylene vials for LC-MS/MS analysis. For 2-PAA, plasma samples were precipitated with a mixture of organic solvents, supernatant was diluted and 0.12 mL was transferred into polypropylene vials for LC-MS/MS analysis. Sample analysis was conducted using reversed phase chromatography.

[4] = Single-dose and repeat-dose intranasal toxicology study in beagle dogs (safety); assay type: in vivo; details: dog
Excerpt: Salivation after betahistine treatment was previously reported to occur in dogs, it was transient in nature in the present study and resolved quickly. Body weights, clinical pathology and gross necropsy findings were unremarkable.

[5] = Single ascending-dose clinical trial of intranasal betahistine in healthy volunteers (plasma pharmacokinetics, LC-MS/MS); details: human; for half-life / AUC / AUC(0-inf) / AUC(0-t) / Cmax / Tmax: both, plasma, inhaled or intranasal
Description: The safety and pharmacokinetic profile of intranasal betahistine was further evaluated in a double-blind, randomized, placebo-controlled, single ascending-dose clinical trial involving a total of 32 healthy male and female volunteers. The main inclusion criteria were that subjects had to be aged 18-45 years and show a body mass index within the range of 18-30 kg/m^2. Subjects were required to fast for 8 hours prior to study drug administration and for 2 hours post-dose.
The betahistine was supplied as a 50 and 200 mg/mL solution in a HDPE bottle and spray pump pack (Aptar Classic Line) that delivers an accurate 100 μL per actuation. The study drug was delivered into the right nostril of subjects while they were in a supine position. For the 5 and 20 mg doses, one application of 50 and 200 mg/mL, respectively, was needed, whereas for the 10 and 40 mg doses, two applications of 50 and 200 mg/mL were required.
Serial blood samples were collected through 24 hours, following dosing on Day 1, at Day 4 and Day 7 to determine concentrations of betahistine and its main metabolite, 2-PAA in plasma. Plasma samples were assayed for BH content using validated procedures and methods. Blood samples (6 mL) were collected into tubes containing K2EDTA and were centrifuged at approximately 2000 g for 10 minutes at +4° C. and the resultant plasma transferred into 2 clean, labelled 2 mL cryovials. All plasma samples were stored at −70° C. or below until all samples had been collected and sent as a single batch for analysis. […] Concentrations were determined using liquid chromatographic tandem mass spectrometry (LC-MS/MS; SCIEX API 5000 for betahistine and SCIEX API 4000 for 2-PAA) with a validated method. Betahistine-^13CD3 dihydrochloride and 2-PAA-D4 hydrochloride served as internal standards. The standard calibration range—using a plasma sample volume of 0.2 and 0.1 mL, respectively—for betahistine was 10 to 800 pg/mL and for 2-PAA it was 2 to 2000 ng/mL. The limit of quantitation was 10 pg/mL for betahistine and 2.0 ng/mL for 2-PAA.
In case of betahistine, the method involved a liquid-liquid extraction; in case of 2-PAA it involved protein precipitation. For betahistine, plasma samples were extracted under basic conditions with an organic solvent; the organic phase was dried and reconstituted in reconstitution solvent. Approximately 0.120 mL of the aqueous layer was transferred into polypropylene vials for LC-MS/MS analysis. For 2-PAA plasma samples were precipitated with a mixture of organic solvents, supernatant was diluted and 0.120 mL was transferred into polypropylene vials for LC-MS/MS analysis. Sample analysis was conducted using reversed phase chromatography.
For each subject who completed the study, plasma concentration-time data of betahistine and 2-PAA were used for the calculation of the following pharmacokinetic parameters: • Cmax Maximum observed plasma concentration obtained directly from the data. • tmax Time to maximum observed concentration, taken directly from the data. If the maximum plasma concentration occurred at more than one time point, the first was chosen. • AUC0-last Area under the plasma concentration versus time curve, calculated using the linear trapezoidal rule from time 0 to time t, where t is the time of last quantifiable concentration. • λz Terminal elimination rate constant obtained from the slope of the line, fitted by linear least squares regression through the terminal points of the logarithmic concentration-time profiles (sometimes also referred to as kel). • AUC0-inf Area under the plasma concentration versus time curve from zero to infinity, calculated as (AUC0-t+Ct/λz), where Ct is the last quantifiable concentration. • t1/2 Apparent terminal half-life, calculated as t1/2=ln(2)/λz.
Dose normalized parameters Cmax/Dose and AUC/Dose were also calculated.

[6] = intranasal single and repeated dose

CNCCc1ccccn1 [betahistine]
plasma half-life ([1]; betahistine, humans): 180 to 240 min | Cmax ([1]; human, oral betahistine 24 mg, Chen et al.): < 0.5 ng/mL | absolute bioavailability ([1]; orally administered betahistine, estimated (SmPC)): around 1% | salivation ([2]; highest concentration betahistine group): salivation was noted in most animals | sneezing ([2]; highest dose level): 2/8 | decline of plasma concentration [3]: more than 90% | test article-related clinical signs ([4]; intranasal 80 mg single dose and repeated dose 240 mg/day, transient): mild to moderate salivation | body weights, clinical pathology and gross necropsy findings [4, 6]: unremarkable | microscopic findings [4, 6]: No adverse treatment-related microscopic findings | half-life [5]: < 60 min | AUC ([5]; 0.07 mg/kg): 0.209 ng·h/mL | AUC ([5]; 0.15 mg/kg): 0.533 ng·h/mL | AUC ([5]; 0.29 mg/kg): 1.61 ng·h/mL | AUC ([5]; 0.57 mg/kg): 3.53 ng·h/mL | AUC(0-inf) ([5]; 5 mg): 0.277 ng·h/mL | AUC(0-t) ([5]; 5 mg): 0.209 ng·h/mL | Cmax ([5]; 5 mg): 0.638 ng/mL | Tmax ([5]; 5 mg): 12.5 min | half-life ([5]; 5 mg): 12.5 min | AUC(0-inf) ([5]; 10 mg): 0.697 ng·h/mL | AUC(0-t) ([5]; 10 mg): 0.533 ng·h/mL | Cmax ([5]; 10 mg): 2.11 ng/mL | Tmax ([5]; 10 mg): 10 min | half-life ([5]; 10 mg): 53 min | AUC(0-inf) ([5]; 20 mg): 1.63 ng·h/mL | AUC(0-t) ([5]; 20 mg): 1.61 ng·h/mL | Cmax ([5]; 20 mg): 4.11 ng/mL | Tmax ([5]; 20 mg): 10 min | half-life ([5]; 20 mg): 31.1 min | AUC(0-inf) ([5]; 40 mg): 2.94 ng·h/mL | AUC(0-t) ([5]; 40 mg): 3.53 ng·h/mL | Cmax ([5]; 40 mg): 10.5 ng/mL | Tmax ([5]; 40 mg): 7.5 min | half-life ([5]; 40 mg): 55.6 min | peak concentration in plasma ([5]; intranasal 20 mg): 4.1 ng/mL | peak concentration in plasma ([5]; intranasal 40 mg): 10.5 ng/mL

From US20200022963A1, “PHARMACEUTICAL COMPOSITION COMPRISING BETAHISTINE” (Otolanum AG, priority 2017, published 2020)
